Reference: patent US12077503B2, “Substituted cyclic amides and their use as herbicides” (FMC CORPORATION, priority 2015, dated 2024)
Like-named read-outs stand apart in the source and are kept apart here.

Columns and labels:
Assay type in all cases: in vivo
[1] = tested on: pigweed (Amaranthus retroflexus); assay: Test A preemergence; details: Amaranthus retroflexus, pre-emergence, 240 h; for pest or weed control at 125 g/ha: 125 g ai/ha; for pest or weed control at 500 g/ha: 500 g ai/ha
[2] = tested on: wheat (Triticum aestivum); assay: Test A postemergence; details: Triticum aestivum, post-emergence, 240 h; for plant injury at 125 g/ha: 125 g ai/ha
In short: (§1)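 Each rating is a visual injury score from 0 to 100 given about 10 d after treatment, judged against untreated controls kept alongside in the greenhouse. In loam soil–sand blend, seeds got a preemergence directed soil spray, while postemergence plants were 2 to 10 cm tall at spraying.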

[3] = tested on: barnyardgrass (Echinochloa crus-galli); assay: Test A postemergence; details: Echinochloa crus-galli, post-emergence, 240 h; for pest or weed control at 125 g/ha: 125 g ai/ha
In short: as §1

[4] = tested on: ryegrass, Italian (Italian ryegrass, Lolium multiflorum); assay: Test A postemergence; details: Lolium multiflorum, post-emergence, 240 h; for pest or weed control at 125 g/ha: 125 g ai/ha
In short: as §1

[5] = tested on: Galium (catchweed bedstraw, Galium aparine); assay: Test A postemergence; details: Galium, post-emergence, 240 h; for pest or weed control at 125 g/ha: 125 g ai/ha
In short: as §1

corn (Zea mays) = assay: Test A postemergence; details: Zea mays, post-emergence, 240 h
In short: as §1

[6] = tested on: giant foxtail (Setaria faberii); assay: Test A postemergence; details: Setaria faberi, post-emergence, 240 h; for pest or weed control at 125 g/ha: 125 g ai/ha
In short: as §1

[7] = tested on: ragweed (common ragweed, Ambrosia elatior); assay: Test A postemergence; details: Ambrosia artemisiifolia, post-emergence, 240 h; for pest or weed control at 125 g/ha: 125 g ai/ha
In short: as §1

[8] = tested on: pigweed (Amaranthus retroflexus); assay: Test A postemergence; details: Amaranthus retroflexus, post-emergence, 240 h; for pest or weed control at 125 g/ha: 125 g ai/ha
In short: as §1

Kochia (Kochia scoparia) = assay: Test A postemergence; details: Bassia scoparia, post-emergence, 240 h; for pest or weed control at 125 g/ha: 125 g ai/ha
In short: as §1

[9] = tested on: blackgrass (Alopecurus myosuroides); assay: Test A postemergence; details: Alopecurus myosuroides, post-emergence, 240 h; for pest or weed control at 125 g/ha: 125 g ai/ha
In short: as §1

rice (Oryra sativa) = assay: Test B flooded paddy test; details: Oryza sativa, 250 g ai/ha, Flood, read-out: Rice plant response rating
In short: (§2)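 Response scored visually against untreated controls, 0 = no effect and 100 = complete control, 13–15 d after treatment in the greenhouse. Compounds added to paddy water held 3 cm above soil surface. Treatment given at 2-leaf stage.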

[10] = tested on: barnyardgrass (Echinochloa crus-galli); assay: Test B flooded paddy test; details: Echinochloa crus-galli, 250 g ai/ha, Flood, read-out: Barnyardgrass plant response rating
In short: as §2

[11] = tested on: sedge, umbrella (small-flower umbrella sedge, Cyperus difformis); assay: Test B flooded paddy test; details: Cyperus difformis, 250 g ai/ha, Flood, read-out: Sedge, Umbrella plant response rating
In short: as §2

[12] = tested on: ducksalad (Heteranthera limosa); assay: Test B flooded paddy test; details: Heteranthera limosa, 250 g ai/ha, Flood, read-out: Ducksalad plant response rating
In short: as §2

[13] = 0 to 100 scale where 0 is no effect and 100 is complete control
[14] = scale of 0 to 100 where 0 is no effect and 100 is complete control

## Cc1cc([C@H]2CN(C)C(=O)[C@@H]2C(=O)Nc2ccccc2S(C)(=O)=O)ccc1Br [Compound 1102]
[1]; preemergence, 0 to 100 scale where 0 is no effect and 100 is complete control, approx. 10 d, read-out: Pigweed plant response rating
  pest or weed control at 125 g/ha: 20%
[1]; preemergence, 0 to 100 scale where 0 is no effect and 100 is complete control, read-out: Pigweed plant response rating
  pest or weed control at 500 g/ha: 50%
[2]; postemergence, visual injury on 0 to 100 scale (0 no effect, 100 complete control), approx. 10 d, read-out: Wheat plant response rating
  plant injury at 125 g/ha: 20%
[2]; 500 g ai/ha, postemergence, 0 to 100 scale, 0 is no effect, 100 is complete control, read-out: Wheat plant response rating
  plant injury at 500 g/ha: 50%
[3]; postemergence, visual injury on 0 to 100 scale (0 no effect, 100 complete control), approx. 10 d, read-out: Barnyardgrass plant response rating
  pest or weed control at 125 g/ha: 80%
[3]; 500 g ai/ha, postemergence, 0 to 100 scale, 0 is no effect, 100 is complete control, read-out: Barnyardgrass plant response rating
  pest or weed control at 500 g/ha: 80%
[4]; postemergence, visual injury on 0 to 100 scale (0 no effect, 100 complete control), approx. 10 d, read-out: Ryegrass, Italian plant response rating
  pest or weed control at 125 g/ha: 0%
[4]; 500 g ai/ha, postemergence, 0 to 100 scale, 0 is no effect, 100 is complete control, read-out: Ryegrass, Italian plant response rating
  pest or weed control at 500 g/ha: 30%
[5]; postemergence, visual injury on 0 to 100 scale (0 no effect, 100 complete control), approx. 10 d, read-out: Galium plant response rating
  pest or weed control at 125 g/ha: 0%
[5]; 500 g ai/ha, postemergence, 0 to 100 scale, 0 is no effect, 100 is complete control, read-out: Galium plant response rating
  pest or weed control at 500 g/ha: 30%
Corn (Zea mays); 125 g ai/ha, postemergence, visual injury on 0 to 100 scale (0 no effect, 100 complete control), approx. 10 d, read-out: Corn plant response rating
  plant injury at 125 g/ha: 20%
Corn (Zea mays); 500 g ai/ha, postemergence, 0 to 100 scale, 0 is no effect, 100 is complete control, read-out: Corn plant response rating
  plant injury at 500 g/ha: 60%
[6]; postemergence, visual injury on 0 to 100 scale (0 no effect, 100 complete control), approx. 10 d, read-out: Foxtail, Giant plant response rating
  pest or weed control at 125 g/ha: 80%
[6]; 500 g ai/ha, postemergence, 0 to 100 scale, 0 is no effect, 100 is complete control, read-out: Foxtail, Giant plant response rating
  pest or weed control at 500 g/ha: 90%
[7]; postemergence, visual injury on 0 to 100 scale (0 no effect, 100 complete control), approx. 10 d, read-out: Ragweed plant response rating
  pest or weed control at 125 g/ha: 0%
[7]; 500 g ai/ha, postemergence, 0 to 100 scale, 0 is no effect, 100 is complete control, read-out: Ragweed plant response rating
  pest or weed control at 500 g/ha: 20%
[8]; postemergence, visual injury on 0 to 100 scale (0 no effect, 100 complete control), approx. 10 d, read-out: Pigweed plant response rating
  pest or weed control at 125 g/ha: 0%
[8]; 500 g ai/ha, postemergence, 0 to 100 scale, 0 is no effect, 100 is complete control, read-out: Pigweed plant response rating
  pest or weed control at 500 g/ha: 0%
Kochia (Kochia scoparia); postemergence, visual injury on 0 to 100 scale (0 no effect, 100 complete control), approx. 10 d, read-out: Kochia plant response rating
  pest or weed control at 125 g/ha: 0%
Kochia (Kochia scoparia); 500 g ai/ha, postemergence, 0 to 100 scale, 0 is no effect, 100 is complete control, read-out: Kochia plant response rating
  pest or weed control at 500 g/ha: 0%
[9]; postemergence, visual injury on 0 to 100 scale (0 no effect, 100 complete control), approx. 10 d, read-out: Blackgrass plant response rating
  pest or weed control at 125 g/ha: 20%
[9]; 500 g ai/ha, postemergence, 0 to 100 scale, 0 is no effect, 100 is complete control, read-out: Blackgrass plant response rating
  pest or weed control at 500 g/ha: 50%
Rice (Oryra sativa); [13]
  pest or weed control at 250 g/ha: 0%
[10]; [13]
  pest or weed control at 250 g/ha: 60%
[11]; [13]
  pest or weed control at 250 g/ha: 0%
[12]; [13]
  pest or weed control at 250 g/ha: 85%

## CC(C)COc1cccc([C@H]2CNC(=O)[C@@H]2C(=O)Nc2ccc(F)cc2F)c1 [Compound 966]
[1]; Preemergence, visual injury rating after approximately 10 d, read-out: Pigweed plant response rating (0 to 100 scale, 0 is no effect, 100 is complete control)
  pest or weed control at 125 g/ha: 0%
[1]; preemergence, visual injury rating about 10 d after treatment, 0 to 100 scale (0 no effect, 100 complete control), read-out: Pigweed plant response rating
  pest or weed control at 500 g/ha: 0%
[2]; Postemergence, visual injury after approximately 10 d, 0 to 100 scale where 0 is no effect and 100 is complete control, read-out: Plant response rating, Wheat
  plant injury at 125 g/ha: 0%
[3]; Postemergence, visual injury after approximately 10 d, 0 to 100 scale where 0 is no effect and 100 is complete control, read-out: Plant response rating, Barnyardgrass
  pest or weed control at 125 g/ha: 60%
[4]; Postemergence, visual injury after approximately 10 d, 0 to 100 scale where 0 is no effect and 100 is complete control, read-out: Plant response rating, Ryegrass, Italian
  pest or weed control at 125 g/ha: 0%
[5]; Postemergence, visual injury after approximately 10 d, 0 to 100 scale where 0 is no effect and 100 is complete control, read-out: Plant response rating, Galium
  pest or weed control at 125 g/ha: 20%
Corn (Zea mays); 125 g ai/ha, Postemergence, visual injury after approximately 10 d, 0 to 100 scale where 0 is no effect and 100 is complete control
  Corn plant response rating (crop injury, 0 = no effect, 100 = complete kill) at 125 g/ha: 0%
[6]; Postemergence, visual injury after approximately 10 d, 0 to 100 scale where 0 is no effect and 100 is complete control, read-out: Plant response rating, Foxtail, Giant
  pest or weed control at 125 g/ha: 40%
[7]; Postemergence, visual injury after approximately 10 d, 0 to 100 scale where 0 is no effect and 100 is complete control, read-out: Plant response rating, Ragweed
  pest or weed control at 125 g/ha: 0%
[8]; Postemergence, visual injury after approximately 10 d, 0 to 100 scale where 0 is no effect and 100 is complete control, read-out: Plant response rating, Pigweed
  pest or weed control at 125 g/ha: 0%
Kochia (Kochia scoparia); Postemergence, visual injury after approximately 10 d, 0 to 100 scale where 0 is no effect and 100 is complete control, read-out: Plant response rating, Kochia
  pest or weed control at 125 g/ha: 0%
[9]; Postemergence, visual injury after approximately 10 d, 0 to 100 scale where 0 is no effect and 100 is complete control, read-out: Plant response rating, Blackgrass
  pest or weed control at 125 g/ha: 20%
Rice (Oryra sativa); [14]
  pest or weed control at 250 g/ha: 0%
[10]; [14]
  pest or weed control at 250 g/ha: 0%
[11]; [14]
  pest or weed control at 250 g/ha: 0%
[12]; [14]
  pest or weed control at 250 g/ha: 60%
